Patent US20200131144A1, “AMINE OR (THIO)AMIDE CONTAINING LXR MODULATORS” (Phenex-FXR GmbH, priority 2017, published 2020)
Read-outs that look alike come from different tables or passages of the source.

Columns and labels:
[1] = biological target: T1, GST-LXRβ ligand-binding domain (Homo sapiens, UniProt P55055, INS174Q); test: TR-FRETβ activity assay (NCoA3 coactivator peptide recruitment); format: biochemical; details: 1 μM 24(S)-25-epoxycholesterol as prestimulating agonist; inverse agonist unless *
T1 construct: amino acids 156-461; NP009052; made in house; host or cells: E. coli
T1 sequence (P55055 with tags, fused parts or gaps INS174Q limits assumed): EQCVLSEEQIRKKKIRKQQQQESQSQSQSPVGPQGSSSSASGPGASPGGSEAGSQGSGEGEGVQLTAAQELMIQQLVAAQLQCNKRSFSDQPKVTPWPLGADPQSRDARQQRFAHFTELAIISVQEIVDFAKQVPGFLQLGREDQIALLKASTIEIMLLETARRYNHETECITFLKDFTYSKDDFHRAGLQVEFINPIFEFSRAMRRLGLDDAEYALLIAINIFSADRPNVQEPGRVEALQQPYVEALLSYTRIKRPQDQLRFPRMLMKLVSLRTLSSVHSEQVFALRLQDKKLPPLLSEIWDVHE
Procedure, shortened: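 Coactivator recruitment read as TR-FRET (ex 340, em 615 and 665 nm) after 1 h equilibration at 4° C, in triplicate. Mix held 76 nM GST-tagged LXRβ LBD (aa 156-461, E. coli), 400 nM biotin-NCoA3 peptide, Tb-cryptate anti-GST, streptavidin-XL665, 240 mM KCl buffer.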

[2] = biological target: T2, LXRα ligand-binding domain (LBD) (Homo sapiens, UniProt Q13133); test: LXR Gal4 reporter transient transfection assay, mammalian two-hybrid, LBD-M2H Gal4α; format: cell-based; details: HEK293 cells; inverse agonist unless *
T2 construct: expressed in transfected cells; host or cells: HEK293
T2 sequence (Q13133 155-447): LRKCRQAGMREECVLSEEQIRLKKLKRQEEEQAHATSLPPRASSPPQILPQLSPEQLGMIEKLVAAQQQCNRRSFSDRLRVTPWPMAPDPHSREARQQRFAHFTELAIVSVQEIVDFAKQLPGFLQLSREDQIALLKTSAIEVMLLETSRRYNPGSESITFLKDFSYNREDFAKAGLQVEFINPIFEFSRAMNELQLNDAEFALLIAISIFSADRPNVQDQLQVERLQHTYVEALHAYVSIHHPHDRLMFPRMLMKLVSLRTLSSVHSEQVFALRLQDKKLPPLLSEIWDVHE
Protocol: (§1) The tested compounds were usually dissolved, tested and stored as 20 mM stock solutions in DMSO. Since sulfonyl acetic acid derivatives tend to decarboxylate under these conditions, these stock solutions were prepared, tested and stored as 20 mM DMSO stock solutions containing 100 mM trifluoroacetic acid (5 equivalents). Sulfonyl acetic acid derivatives are shelf stable as solid at rt for long time as reported by Griesbrecht et al. (Synlett 2010:374) or Faucher et al. (J. Med. Chem. 2004; 47:18).
(§2) LXR Gal4 Reporter Transient Transfection Assays
(§3) LXRα and LXRβ activity status was determined via detection of interaction with coactivator and corepressor proteins in mammalian two-hybrid experiments (M2H). For this, via transient transfection the full length (FL) proteins of LXRα (amino acids 1-447; NP005684; SEQ ID NO:1) or LXRβ-(amino acids 1-461; NP009052; SEQ ID NO:2) or the ligand-binding domains (LBD) of LXRα (amino acids 155-447 SEQ ID NO:3) or LXR (amino acids 156-461; SEQ ID NO:4) were expressed from pCMV-AD (Stratagene) as fusions to the transcriptional activation domain of NFkB. As cofactors, domains of either the steroid receptor coactivator 1 (SRC1; amino acids 552-887; SEQ ID NO:5) or of the corepressor NCoR (amino acids 1906-2312; NP006302; SEQ ID NO:6) were expressed as fusions to the DNA binding domain of the yeast transcription factor GAL4 (from pCMV-BD; Stratagene). Interaction was monitored via activation of a coexpressed Firefly Luciferase Reporter gene under control of a promoter containing repetitive GAL4 response elements (vector pFRLuc; Stratagene). Transfection efficiency was controlled via cotransfection of constitutively active pRL-CMV Renilla reniformis luciferase reporter (Promega). HEK293 cells were grown in minimum essential medium (MEM) with 2 mM L-glutamine and Earle's balanced salt solution supplemented with 8.3% fetal bovine serum, 0.1 mM non-essential amino acids, 1 mM sodium pyruvate, at 37° C. in 5% CO2. 3.5×10^4 cells/well were plated in 96-well cell culture plates in growth medium supplemented with 8.3% fetal bovine serum for 16-20 h to—90% confluency. For transfection, medium was taken off and LXR and cofactor expressing plasmids as well as the reporter plasmids are added in 30 μL OPTIMEM/well including polyethylene-imine (PEI) as vehicle. Typical amounts of plasmids transfected/well: pCMV-AD-LXR (5 ng), pCMV-BD-cofactor (5 ng), pFR-Luc (100 ng), pRL-CMV (0.5 ng). Compound stocks were prepared in DMSO, prediluted in MEM to a total volume of 120 μL, and added 4 h after addition of the transfection mixture (final vehicle concentration not exceeding 0.2%). Cells were incubated for additional 16 h, lysed for 10 min in 1×Passive Lysis Buffer (Promega) and Firefly and Renilla luciferase activities were measured sequentially in the same cell extract using buffers containing D-luciferine and coelenterazine, respectively. Measurements of luminescence were done in a BMG-luminometer.

[3] = Pharmacokinetics in mice after single oral dosing, blood and liver exposure by LC-MS; format: in vivo, mice (C57/bl6/J)
Protocol: The pharmacokinetics of the compounds was assessed in mice after single dosing and oral administrations. Blood and liver exposure was measured via LC-MS.
The study design was as follows:
Animals: C57/bl6/J (Janvier) males Diet: standard rodent chow Dose: 20 mg/kg Animal handling: animals were withdrawn from food at least 12 h before administration Design: single dose oral administration, n=3 animals per group Sacrifice: at stated time point (4, 12 or 24 h) after administration Bioanalytics: LC-MS of liver and blood samples

[4] = biological target: T3, LXRβ ligand-binding domain (LBD) (Homo sapiens, UniProt P55055, INS174Q); test: LXR Gal4 reporter transient transfection assay, mammalian two-hybrid, LBD-M2H Gal4β; format: cell-based; details: HEK293 cells; inverse agonist unless *
T3 construct: or LXR (amino acids 156-461); expressed in transfected cells; host or cells: HEK293
T3 sequence (P55055 with tags, fused parts or gaps INS174Q limits assumed): T1 sequence (P55055 with tags, fused parts or gaps INS174Q limits assumed)
Protocol: as §1, §2, §3

[5] = human liver microsome; cited from earlier work
[6] = rat liver microsome; cited from earlier work
LXR [7] = details: literature; cited from earlier work
LXR [8] = tested on: T4, LXR; test: Activity on LXR, assay not specified; details: confirmed by applicant
T4 construct: rows headed: activity on LXR; other: confirmed by applicant; LXRα (amino acids 1-447); NP005684; NP009052
Text: The following compounds from this application, in particular, are further described in some publications, mainly from the same group of inventors/authors: SR9238 is described as a liver-selective LXR inverse agonist that suppresses hepatic steatosis upon parenteral administration (Griffett et al., ACS Chem. Biol. 2013; 8:559). […] This compound then has systemic exposure. In addition, it was described, that SR9238 suppresses fibrosis in a model of NASH again after parenteral administration (Griffett et al., Mol. Metab. 2015; 4:35). With a related SR9243 the effects on aerobic glycolysis (Warburg effect) and lipogenesis were described (Flaveny et al., Cancer Cell 2015; 28:42) and the NASH-supressing data obtained with SR9238 was confirmed by Huang et al. (BioMed Res. Int. 2018; 8071093) using SR9243.

[9] = male, C57/bl6/J, mouse, liver/blood, single oral dose 20 mg/kg, time point 4 h, read-out: liver/blood ratio
[10] = single oral dose 20 mg/kg, time point 4 h
[11] = single oral dose 20 mg/kg, time point 12 h
[12] = single oral dose 20 mg/kg, time point 4 h, below LLOQ

Compound	EC50 [1]	EC50 [2]	Kp at 4 h [3, 9]	blood/plasma exposure [3, 10]	liver exposure [3, 10]	EC50 [4]	further results
COc1cc(-c2cccc(C(C)(C)C(=O)O)c2)ccc1CN(Cc1ccc(C(F)(F)F)o1)Cc1c(C)ccc2ccccc12 [22/11]	100 to 1000 nM	< 100 nM	4.8	0.57 µM	2.75 µM	< 100 nM	
Cc1ccc(CN(Cc2ccc(-c3cccc(C(C)(C)C(=O)O)c3)cc2)Cc2ccc(C(F)(F)F)o2)c2ccccc12 [24/1]	< 100 nM	< 100 nM	8	2.25 µM	18 µM	< 100 nM	
CC(C)(C(=O)O)c1cccc(-c2ccc(CN(Cc3ccc(C(F)(F)F)o3)C(=O)C34CC5CC(CC(C5)C3)C4)cc2)c1 [27/56]		100 to 1000 nM				< 100 nM	FRETβ [1]: B*
CC(C)(C(=O)O)c1cccc(-c2ccc(CN(Cc3ccc(C(F)(F)F)o3)Cc3c(C(F)F)ccc4ccccc34)cc2)c1 [27/69]	100 to 1000 nM	< 100 nM				< 100 nM	
CC(C)(C(=O)O)c1cccc(-c2ccc(CN(Cc3ccc(C(F)(F)F)o3)C(=O)c3cccn4nccc34)cc2)c1 [27/70]	100 to 1000 nM	100 to 1000 nM				< 100 nM	
Cc1cc(C)c(CN(Cc2ccc(-c3cccc(S(=O)(=O)CC(=O)O)c3)cc2)Cc2ccc(C(F)(F)F)o2)c(C)c1 [Example 1, 2-((4′-((((5-(Trifluoromethyl)furan-2-yl)methyl)(2,4,6-trimethylbenzyl)amino)methyl)-1,1′-biphenyl-3-yl)sulfonyl)acetic acid]	1000 to 10000 nM	1000 to 10000 nM	51	0.83 µM	42 µM	100 to 1000 nM	Kp at 12 h ([3]; male, C57/bl6/J, mouse, liver/blood, single oral dose 20 mg/kg, time point 12 h, read-out: liver/blood ratio): 54; blood/plasma exposure [3, 11]: 0.06 µM; liver exposure [3, 11]: 3.2 µM
Cc1cc(C)c(S(=O)(=O)N(Cc2ccc(-c3cccc(S(C)(=O)=O)c3)cc2)Cc2ccc(C(F)(F)F)o2)c(C)c1 [GSK2033, reference compound]							clearance ClInt [5]: > 1.0 mL/min/mg prot; oral bioavailability ([3]; single dose oral administration, 20 mg/kg): not orally bioavailable and hepatoselective; blood/plasma exposure [3, 12]: (14.4 ng/mL); liver exposure [3, 12]: (9.6 ng/mL); clearance ClInt [6]: > 1.0 mL/min/mg prot
Cc1cc(C)c(S(=O)(=O)N(Cc2ccc(-c3cccc(S(C)(=O)=O)c3)cc2)Cc2ccc(C(=O)O)o2)c(C)c1 [SR10389]							LXR activity (LXR [7]): LXR inactive; activity on LXR (LXR [8]): inactive on LXR

Second part, led by results:

EC50 [1]	EC50 [2]	Kp at 4 h [3, 9]	blood/plasma exposure [3, 10]	liver exposure [3, 10]	EC50 [4]	Compound	further results
100 to 1000 nM	< 100 nM	9.7	1.22 µM	11.8 µM	< 100 nM	Cc1ccc2ncccc2c1CN(Cc1ccc(-c2cccc(C(C)(C)C(=O)O)c2)cc1)Cc1ccc(C(F)(F)F)o1 [24/3]	
1000 to 10000 nM	100 to 1000 nM				< 100 nM	Cc1ccc2ccccc2c1CN(Cc1ccc(-c2cccc(CC(C)(C)C(=O)O)c2)cc1)Cc1ccc(C(F)(F)F)o1 [26/2]	
< 100 nM	< 100 nM	2.7	4.46 µM	12.1 µM	< 100 nM	CC(C)(C(=O)O)c1cccc(-c2ccc(CN(Cc3ccc(C(F)(F)F)o3)Cc3c(C#N)ccc4ccccc34)cc2)c1 [27/67]	
< 100 nM	< 100 nM				< 100 nM	CC(C)(C(=O)O)c1cccc(-c2ccc(CN(Cc3ccc(C(F)(F)F)o3)Cc3c(OC(F)F)ccc4ccccc34)cc2)c1 [27/68]	
1000 to 10000 nM	100 to 1000 nM				100 to 1000 nM	Cc1cc(C)c(C(=O)N(Cc2ccc(-c3cccc(S(=O)(=O)CC(=O)O)c3)cc2)Cc2ccc(C(F)(F)F)o2)c(C)c1 [Example 4, 2-((4′-((2,4,6-Trimethyl-N-((5-(trifluoromethyl)furan-2-yl)methyl)benzamido)methyl)-1,1′-biphenyl-3-yl)sulfonyl)acetic acid]	liver exposure [3, 11]: 3.45 µM
< 100 nM	< 100 nM				< 100 nM	CC(c1cccc2ccccc12)N(Cc1ccc(-c2cccc(S(=O)(=O)CC(=O)O)c2)cc1)Cc1ccc(C(F)(F)F)o1 (centres unmarked) [Example 7, 2-((4′-(((1-(Naphthalen-1-yl)ethyl)((5-(trifluoromethyl)furan-2-yl)methyl)amino)methyl)-[1,1′-biphenyl]-3-yl)sulfonyl)acetic acid]	
100 to 1000 nM	1000 to 10000 nM				< 100 nM	COC(=O)CS(=O)(=O)c1cc(-c2ccc(CN(Cc3ccc(C(F)(F)F)o3)Cc3c(C)cc(C)cc3C)cc2)cc(F)c1CO [Example 13]	
